Laboratory results: PubChem BioAssay (NCI)
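Exposure lasted 48 hours, with cells grown in 96-well plates and compounds tested at five concentrations. GI50: concentration for 50% inhibition of growth. At the TGI there is no net growth.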

Columns and labels:
Assay in all cases: NCI-60 cell line screen, 48 h
CAKI-1 renal = tested on: CAKI-1 renal
SK-MEL-5 melanoma = tested on: SK-MEL-5 melanoma
OVCAR-5 ovarian = tested on: OVCAR-5 ovarian
MALME-3M melanoma = tested on: MALME-3M melanoma
ACHN renal = tested on: ACHN renal
TK-10 renal = tested on: TK-10 renal
A549 NSCLC = tested on: A549 NSCLC
SW-620 colon = tested on: SW-620 colon
SK-MEL-28 melanoma = tested on: SK-MEL-28 melanoma
A498 renal = tested on: A498 renal
LOX IMVI melanoma = tested on: LOX IMVI melanoma
HOP-62 NSCLC = tested on: HOP-62 NSCLC
SNB-75 CNS = tested on: SNB-75 CNS
HT29 colon = tested on: HT29 colon
RXF 393 renal = tested on: RXF 393 renal
SK-MEL-2 melanoma = tested on: SK-MEL-2 melanoma
BT-549 breast = tested on: BT-549 breast
HCT-116 colon = tested on: HCT-116 colon
CCRF-CEM leukemia = tested on: CCRF-CEM leukemia
UACC-62 melanoma = tested on: UACC-62 melanoma
SR leukemia = tested on: SR leukemia
HCC-2998 colon = tested on: HCC-2998 colon
SK-OV-3 ovarian = tested on: SK-OV-3 ovarian
K-562 leukemia = tested on: K-562 leukemia
OVCAR-3 ovarian = tested on: OVCAR-3 ovarian
SN12C renal = tested on: SN12C renal
HL-60(TB) leukemia = tested on: HL-60(TB) leukemia
U251 CNS = tested on: U251 CNS
UO-31 renal = tested on: UO-31 renal
NCI-H460 lung = tested on: NCI-H460 lung
HS 578T breast = tested on: HS 578T breast
SF-539 CNS = tested on: SF-539 CNS
MOLT-4 leukemia = tested on: MOLT-4 leukemia
RPMI-8226 leukemia = tested on: RPMI-8226 leukemia
SF-268 CNS = tested on: SF-268 CNS
NCI/ADR-RES ovarian = tested on: NCI/ADR-RES ovarian
SF-295 CNS = tested on: SF-295 CNS
IGROV1 ovarian = tested on: IGROV1 ovarian
MDA-MB-231 breast = tested on: MDA-MB-231 breast
OVCAR-4 ovarian = tested on: OVCAR-4 ovarian
OVCAR-8 ovarian = tested on: OVCAR-8 ovarian
SNB-19 CNS = tested on: SNB-19 CNS
COLO 205 colon = tested on: COLO 205 colon
HCT-15 colon = tested on: HCT-15 colon
PC-3 prostate = tested on: PC-3 prostate
KM12 colon = tested on: KM12 colon
MCF7 breast = tested on: MCF7 breast
DU-145 prostate = tested on: DU-145 prostate
NCI-H522 lung = tested on: NCI-H522 lung
T-47D breast = tested on: T-47D breast
786-0 renal = tested on: 786-0 renal
HOP-92 NSCLC = tested on: HOP-92 NSCLC
M14 melanoma = tested on: M14 melanoma
MDA-MB-435 = tested on: MDA-MB-435
NCI-H226 lung = tested on: NCI-H226 lung
UACC-257 melanoma = tested on: UACC-257 melanoma
NCI-H23 lung = tested on: NCI-H23 lung
EKVX NSCLC = tested on: EKVX NSCLC

Compound: CCCOc1ccc2sc(NC(=O)OC)nc2c1
- GI50 (CAKI-1 renal): 2.87 µM
- TGI (CAKI-1 renal): > 100 µM
- GI50 (SK-MEL-5 melanoma): 1.12 µM
- TGI (SK-MEL-5 melanoma): > 100 µM
- GI50 (OVCAR-5 ovarian): > 100 µM
- TGI (OVCAR-5 ovarian): > 100 µM
- GI50 (MALME-3M melanoma): 3.81 µM
- TGI (MALME-3M melanoma): > 100 µM
- GI50 (ACHN renal): > 25.1 µM
- TGI (ACHN renal): > 100 µM
- GI50 (TK-10 renal): > 24.5 µM
- TGI (TK-10 renal): > 100 µM
- GI50 (A549 NSCLC): 4.2 µM
- TGI (A549 NSCLC): > 100 µM
- GI50 (SW-620 colon): 0.544 µM
- TGI (SW-620 colon): > 100 µM
- GI50 (SK-MEL-28 melanoma): 18.6 µM
- TGI (SK-MEL-28 melanoma): > 100 µM
- GI50 (A498 renal): 2.34 µM
- TGI (A498 renal): > 27.1 µM
- GI50 (LOX IMVI melanoma): 5.66 µM
- TGI (LOX IMVI melanoma): > 100 µM
- GI50 (HOP-62 NSCLC): 4.9 µM
- TGI (HOP-62 NSCLC): > 100 µM
- GI50 (SNB-75 CNS): 2.58 µM
- TGI (SNB-75 CNS): > 100 µM
- GI50 (HT29 colon): 0.465 µM
- TGI (HT29 colon): > 100 µM
- GI50 (RXF 393 renal): 2.71 µM
- TGI (RXF 393 renal): > 29.3 µM
- GI50 (SK-MEL-2 melanoma): 2.05 µM
- TGI (SK-MEL-2 melanoma): > 100 µM
- GI50 (BT-549 breast): 3.81 µM
- TGI (BT-549 breast): > 100 µM
- GI50 (HCT-116 colon): 1.06 µM
- TGI (HCT-116 colon): > 100 µM
- GI50 (CCRF-CEM leukemia): 2.07 µM
- TGI (CCRF-CEM leukemia): > 28.4 µM
- GI50 (UACC-62 melanoma): 3.64 µM
- TGI (UACC-62 melanoma): > 100 µM
- GI50 (SR leukemia): 0.36 µM
- TGI (SR leukemia): > 100 µM
- GI50 (HCC-2998 colon): 24.5 µM
- TGI (HCC-2998 colon): > 100 µM
- GI50 (SK-OV-3 ovarian): 4.36 µM
- TGI (SK-OV-3 ovarian): > 100 µM
- GI50 (K-562 leukemia): 0.419 µM
- TGI (K-562 leukemia): > 100 µM
- GI50 (OVCAR-3 ovarian): 2.27 µM
- TGI (OVCAR-3 ovarian): 19.9 µM
- GI50 (SN12C renal): 6.2 µM
- TGI (SN12C renal): > 100 µM
- GI50 (HL-60(TB) leukemia): 0.616 µM
- TGI (HL-60(TB) leukemia): 5.24 µM
- GI50 (U251 CNS): 2.42 µM
- TGI (U251 CNS): > 100 µM
- GI50 (UO-31 renal): 6.07 µM
- TGI (UO-31 renal): > 100 µM
- GI50 (NCI-H460 lung): 3.11 µM
- TGI (NCI-H460 lung): > 100 µM
- GI50 (HS 578T breast): 3.48 µM
- TGI (HS 578T breast): > 100 µM
- GI50 (SF-539 CNS): 2.91 µM
- TGI (SF-539 CNS): > 100 µM
- GI50 (MOLT-4 leukemia): 2.73 µM
- TGI (MOLT-4 leukemia): > 100 µM
- GI50 (RPMI-8226 leukemia): 2.65 µM
- TGI (RPMI-8226 leukemia): > 100 µM
- GI50 (SF-268 CNS): > 100 µM
- TGI (SF-268 CNS): > 100 µM
- GI50 (NCI/ADR-RES ovarian): 0.793 µM
- TGI (NCI/ADR-RES ovarian): > 47.5 µM
- GI50 (SF-295 CNS): 2.69 µM
- TGI (SF-295 CNS): > 100 µM
- TGI (IGROV1 ovarian): > 100 µM
- GI50 (MDA-MB-231 breast): > 100 µM
- TGI (MDA-MB-231 breast): > 100 µM
- GI50 (OVCAR-4 ovarian): > 100 µM
- TGI (OVCAR-4 ovarian): > 100 µM
- GI50 (OVCAR-8 ovarian): 5 µM
- TGI (OVCAR-8 ovarian): > 100 µM
- GI50 (SNB-19 CNS): 10.2 µM
- TGI (SNB-19 CNS): > 100 µM
- GI50 (COLO 205 colon): 0.838 µM
- TGI (COLO 205 colon): 13.5 µM
- GI50 (HCT-15 colon): 0.611 µM
- TGI (HCT-15 colon): > 100 µM
- GI50 (PC-3 prostate): 3.48 µM
- TGI (PC-3 prostate): > 100 µM
- GI50 (KM12 colon): 0.627 µM
- TGI (KM12 colon): > 100 µM
- GI50 (MCF7 breast): 1.08 µM
- TGI (MCF7 breast): > 100 µM
- GI50 (DU-145 prostate): 4.05 µM
- TGI (DU-145 prostate): > 100 µM
- GI50 (NCI-H522 lung): 1.69 µM
- TGI (NCI-H522 lung): > 25 µM
- GI50 (T-47D breast): 2.94 µM
- TGI (T-47D breast): > 100 µM
- GI50 (786-0 renal): > 28.2 µM
- TGI (786-0 renal): > 100 µM
- GI50 (HOP-92 NSCLC): 3.38 µM
- TGI (HOP-92 NSCLC): > 100 µM
- GI50 (M14 melanoma): 1.26 µM
- TGI (M14 melanoma): > 100 µM
- GI50 (MDA-MB-435): 0.215 µM
- TGI (MDA-MB-435): 0.587 µM
- GI50 (NCI-H226 lung): > 100 µM
- TGI (NCI-H226 lung): > 100 µM
- GI50 (UACC-257 melanoma): > 100 µM
- TGI (UACC-257 melanoma): > 100 µM
- GI50 (NCI-H23 lung): 5.77 µM
- TGI (NCI-H23 lung): > 100 µM

Compound: Cc1nc(-[n+]2nc(-c3ccncc3)nn2-c2ccccc2)sc1C
- TGI (CAKI-1 renal): > 100 µM
- TGI (SK-MEL-5 melanoma): > 100 µM
- TGI (OVCAR-5 ovarian): > 100 µM
- TGI (MALME-3M melanoma): > 100 µM
- TGI (ACHN renal): > 100 µM
- TGI (TK-10 renal): 99.1 µM
- TGI (A549 NSCLC): > 100 µM
- TGI (SW-620 colon): > 100 µM
- TGI (SK-MEL-28 melanoma): > 100 µM
- TGI (A498 renal): > 100 µM
- TGI (LOX IMVI melanoma): > 100 µM
- TGI (HOP-62 NSCLC): 31.9 µM
- TGI (SNB-75 CNS): > 100 µM
- TGI (HT29 colon): > 100 µM
- TGI (RXF 393 renal): 45.9 µM
- TGI (SK-MEL-2 melanoma): > 100 µM
- TGI (BT-549 breast): 41 µM
- TGI (HCT-116 colon): > 100 µM
- TGI (EKVX NSCLC): > 100 µM
- TGI (CCRF-CEM leukemia): > 100 µM
- TGI (UACC-62 melanoma): > 100 µM
- TGI (SR leukemia): > 100 µM
- TGI (HCC-2998 colon): > 100 µM
- TGI (SK-OV-3 ovarian): 67.5 µM
- TGI (K-562 leukemia): > 100 µM
- TGI (SN12C renal): > 100 µM
- TGI (HL-60(TB) leukemia): > 100 µM
- TGI (U251 CNS): > 100 µM
- TGI (UO-31 renal): 50.4 µM
- TGI (HS 578T breast): > 100 µM
- TGI (SF-539 CNS): 69.2 µM
- TGI (MOLT-4 leukemia): > 100 µM
- TGI (RPMI-8226 leukemia): > 100 µM
- TGI (SF-268 CNS): > 100 µM
- TGI (NCI/ADR-RES ovarian): > 100 µM
- TGI (SF-295 CNS): > 100 µM
- TGI (IGROV1 ovarian): > 100 µM
- TGI (MDA-MB-231 breast): > 100 µM
- TGI (OVCAR-8 ovarian): > 100 µM
- TGI (SNB-19 CNS): > 100 µM
- TGI (COLO 205 colon): > 100 µM
- TGI (HCT-15 colon): > 100 µM
- TGI (PC-3 prostate): > 100 µM
- TGI (KM12 colon): > 100 µM
- TGI (MCF7 breast): > 100 µM
- TGI (DU-145 prostate): > 100 µM
- TGI (NCI-H522 lung): 76.5 µM
- TGI (T-47D breast): > 100 µM
- TGI (786-0 renal): > 100 µM
- TGI (M14 melanoma): > 100 µM
- TGI (MDA-MB-435): > 100 µM
- TGI (NCI-H226 lung): 95.9 µM
- TGI (UACC-257 melanoma): > 100 µM
- TGI (NCI-H23 lung): > 100 µM
